Data reported in US8153785B2, “Stabilizing ligands for regulation of protein function” (Cheminpharma LLC, priority 2009, dated 2012).

Each compound was assayed against T1, L106-tsLuc (FKBP L106P destabilizing domain fused to luciferase) in HCT116 cells (Homo sapiens, UniProt P62942, F37V) (assay: Luciferase stabilization assay in HCT116 cells stably transfected with L106-tsLuc). Details: 24 hour incubation, 3-fold dilutions, 10 μM to 12 nM, BrightGlo readout, read-out: luciferase activity, expressed in IC50 values.
T1 construct: expressed in transfected cells; host or cells: HCT116
Type: cell-based
Experimental: The compounds were assayed for their ability to bind to the destabilizing domain of the protein according the following procedure:
HCT116 cells stably transfected with L106-tsLuc were cultured in DMEM media containing 10% fetal bovine serum. 7,000 cells/well were seeded in 100 μL of DMEM/10% FBS media in a 96-well plate and incubated overnight at 37° C. in a humidified, 5% CO2 incubator. Media was replaced with fresh 100 μL of fresh DMEM/10% FBS media containing various concentrations of Shield-1, and the compounds of Example 6 (Ic), and Example 9 (Id) Compounds were added at 3-fold dilutions, concentrations ranging from 10 μM to 12 nM. After 24 hour incubation with the compounds at 37° C. in a humidified, 5% CO2 incubator, luciferase activity was measured in a luminometer after the addition of 100 μL/well BrightGlo reagent (Promega).

T1 sequence (P62942 with tags, fused parts or gaps F37V limits assumed): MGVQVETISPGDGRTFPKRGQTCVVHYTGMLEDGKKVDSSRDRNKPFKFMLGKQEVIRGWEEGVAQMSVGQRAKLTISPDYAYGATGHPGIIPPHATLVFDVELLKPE

Row | SMILES | IC50 [nM]
1 | CC[C@H](C(=O)N1CCCC[C@H]1C(=O)OC(CCc1ccc(OC)c(OC)c1)c1cccc(OCCN2CCOCC2)c1)c1cc(OC)c(OC)c(OC)c1 (stereo partly drawn) [Shield-1, reference compound] | < 10
2 | CCN(C(=O)N1CCCC[C@H]1C(=O)N[C@H](CCc1ccc(OC)c(OC)c1)c1cccc(OCCN2CCOCC2)c1)c1ccccc1 [Example 9 (Id)] | < 10000
3 | CC[C@H](C(=O)N1CCCC[C@H]1C(=O)N[C@H](CCc1ccc(OC)c(OC)c1)c1cccc(OCCN2CCOCC2)c1)c1cc(OC)c(OC)c(OC)c1 [Example 6 (Ic)] | < 100
